Source: US5506271A, “Method of treating papilloma virus infection using hypericin” (New York University, priority 1993, dated 1996)
“Also recorded” adds a separate entry of the source. Read-outs that look alike come from different tables or passages of the source.

Tests used:
[1] = test system: Friend virus; assay: Protective effect of virus preparations inactivated with hypericin, Rose Bengal or combinations against live Friend virus challenge (FIG. 10); type: in vivo, BALB/C mice; conditions: challenge day 21, spleens weighed after 15 days
Excerpt: FIG. 10 is a graph showing the protective effect of the inactivated virus preparations described in FIG. 9. On day 21 after administration of the treated virus preparation, all animals were challenged with live Friend virus. Also included were control groups of mice injected with live Friend virus, and mice injected with PBS only. After 15 days, all mice were sacrificed and their spleens weighed as a measure of protection.
In this experiment, inhibition of splenomegaly served as the measure of protection resulting from immunogenicity of the virus preparations.

[2] = test system: Friend virus; assay: Inactivation of Friend virus by hypericin, Rose Bengal and combinations, splenomegaly (FIG. 9); type: in vivo, BALB/C mice; conditions: agents at 2-5 mg/ml, 1 hour on ice, virus 1:2000, spleen weight day 14
Method: FIG. 9 is a graph showing the inactivation of Friend virus by Hypericin, Rose Bengal and combinations thereof. Friend virus was diluted 1:2000 in PBS and incubated with no hypericin or concentrations of hypericin of 1, 2, or 5 mg/ml alone, or in combination with Rose Bengal (RB) at concentrations of 2 and 5 mg/ml for 1 hour on ice. The treated virus preparations were injected into BALB/C mice. On day 14, 1 mouse from each group was sacrificed and analyzed for spleen weight.
FIGS. 9 and 10 show the results of a study in which Friend virus was treated with hypericin, Rose Bengal or combinations of hypericin and Rose Bengal at different concentrations and ratios. The virus treated in this manner was injected into BALB/C mice. […] Lack of, or suppression of, splenomegaly serves as an index of the degrees of virus inactivation. […] This proves that virus inactivation by both agents, alone and in combination, was effective.

[3] = test system: murine RadLV particles; assay: Inactivation of RadLV particles by hypericin with Rose Bengal (particle-derived reverse transcriptase); type: biochemical; conditions: Rose Bengal 1-2 μg/ml, hypericin 0.001-1 μg/ml; FIG. 4
Method: Assays for virus particle-derived reverse transcriptase were performed according to Stephenson, J. R. et al., Virology 48:749-756 (1972)).
Hypericin is a photodynamic agent which, in the presence of light, produces excited oxygen species such as singlet oxygen and superoxide radicals. These excited oxygen species play a role in the antiviral and antiretroviral activity of hypericin and hypericin analogs. While this property of producing excited oxygen species may account for inactivation of the virus or retrovirus particle, it is not sufficient to explain the enhanced immunogenicity of the inactivated virus. Support for this notion comes from experimental findings by the present inventors using another photodynamic agent, Rose Bengal. Rose Bengal also produces excited oxygen species, is also capable of inactivating retroviral particles and interacts synergistically with hypericin in inactivating the virus.

[4] = test system: retroviral particles; assay: Detergent-mediated (Triton X-100) release of reverse transcriptase from hypericin-treated viral particles; type: biochemical
Method: (§1) Thus it is much more difficult to measure reverse transcriptase from virus treated with hypericin prior to exposure to detergent than with virus first disrupted with detergent and then incubated with hypericin.
The effects on virion-encapsulated enzyme are presumed to be due to the failure of the capsids, within which the […] is sequestered, to be disrupted after hypericin treatment.

[5] = test system: HIV; assay: Effect of light on hypericin reduction of HIV infectivity titer for H9 target cells, limiting dilution assay; type: cell-based; conditions: ambient light; FIG. 5
Excerpt: FIG. 5 is a graph showing the effect of ambient light treatment on hypericin's ability to reduce the infectivity titer of HIV for H9 target cells, measured in a limiting dilution assay.

[6] = test system: Friend leukemia virus (FLV); assay: Inactivation of Friend leukemia virus by extracorporeal hypericin treatment, splenomegaly in mice; type: in vivo, BALB/c mice
Method: FIG. 6 is a graph showing the inactivation of Friend leukemia virus (FLV) extracorporeal treatment with hypericin. Virus infectivity is measured as splenomegaly. Uninfected mice generally have spleen weights in the range of 0.08 to 0.2 grams.
Synthetic hypericin prepared from emodin was solubilized in 0.5% aqueous benzyl alcohol and administered to a concentrated stock of Friend virus estimated to contain greater than 10^4 virus focus forming units at final hypericin concentrations of 1 μg/ml and 5 μg/ml. The mixture was incubated on ice for one hour. A control preparation was incubated in parallel in the absence of the compound. Additional experimental groups were exposed to light from a 200 watt visible light halogen source in the presence of equivalent hypericin concentrations for 1×30 seconds and 2×30 seconds respectively.
The treated virus was diluted in phosphate buffered saline (PBS) to final dilutions of 1:500 and of 1:2000. The diluted treated and control virus preparations were injected intraperitoneally into BALB/c mice (3 mice per group). A single mouse from each group was sacrificed on day 11 for assessment of spleen size in order to determine the degree of FLV inactivation by hypericin.

[7] = test system: purified reverse transcriptase enzyme; assay: Enzymatic activity of purified reverse transcriptase enzyme; type: biochemical; conditions: assay conditions used, FIG. 2
Method: as §1

[8] = test system: HIV reverse transcriptase activity; assay: Reverse transcriptase activity of hypericin-treated HIV; type: biochemical; conditions: Expt 1
Method: Hypericin Reduces Infectivity and Reverse Transcriptase
Activity of HIV Infecting CEM × 14 Cells
(§2) overnight with hypericin at 4° C.. RT: reverse transcriptase

[9] = test system: Radiation leukemia virus (RadLV); assay: Guanidinium hydrochloride extraction of RNA from hypericin-treated virions; parameters: species or system murine; conditions: virions treated with hypericin prior to GuHCl disruption; FIG. 3
Excerpt: The present inventors have further discovered that hypericin-treated retroviral particles become more resistant to dissociation by harsh denaturing reagents such as guanidinium hydrochloride (GuHCl). These denaturing agents effectively disrupt hydrogen bonding, thereby unfolding tertiary and quaternary structures of proteins and causing dissociation of bonded proteins and the collapse of biological structures.

[10] = Solubility of hypericin ion pair and salt forms in organic solvents; type: physicochemical
Excerpt: As indicated above, hypericin has hydroxy groups at R^1 and R^2 in its free acid form. Upon reaction with a base, the free acid form of hypericin ionizes at R^1 and R^2. Under alkaline conditions below about pH 11.5, only one of these hydroxy groups ionize to form a salt with the base. At more alkaline conditions, both hydroxy groups ionize to form a salt with two basic cations. The salt with two basic cations has substantially different physical properties as that with one cation. […] To differentiate these two forms of hypericin, the former, which behaves as an organic compound, will be referred to herein as an ion pair and the latter as a salt.

[11] = test system: HIV; assay: HIV infectivity monitored by HIV-induced destruction of CEM ×174 cultures infected with dilutions of hypericin-treated virus; type: cell-based; conditions: for log reduction at 10 µg/mL: hypericin 10 μg/ml
Method: Hypericin can effectively inactivate retroviral particles rendering them non infectious.
In these experiments infectivity was monitored by HIVinduced destruction
of CEM ×174 after these cultures were infected with increasing
dilutions of hypericintreated virus. For Experiment 2, virus was incubate
as §2

## O=C1OC2(c3cc(I)c(O)c(I)c3Oc3c2cc(I)c(O)c3I)c2c(Cl)c(Cl)c(Cl)c(Cl)c21 [Rose Bengal]
[1]
  protection from live virus challenge (immunogenicity of inactivated virus preparation): does not cause marked enhancement of immunogenicity
[1]; listed as Rose-Bengal
  protection from live virus challenge (immunogenicity of inactivated virus preparation): lower levels of protection
[2]
  suppression of virus-induced splenomegaly (virus inactivation): effectively suppressed virus-induced splenomegaly
[3]
  effect of Rose Bengal on hypericin inactivation of retroviral particles: enhances the ability of hypericin; also recorded: enhanced the ability of hypericin to inactivate retroviral particles

## Cc1cc(O)c2c(=O)c3c(O)cc(O)c4c5c(O)cc(O)c6c(=O)c7c(O)cc(C)c8c1c2c(c34)c(c78)c65 [hypericin]
[4]; 0.5-1% Triton X-100, FIG. 1
  detergent-mediated release of reverse transcriptase activity from viral particles: prevents detergent-mediated (0.5-1% Triton X-100) release of reverse transcriptase activity
[4]; 1% aqueous Triton X-100
  resistance of virion to disruption with non-ionic detergents: more resistant to disruption
[5]
  effect of light on antiviral activity of hypericin: Light can enhance the antiviral activity
[6]; 200 watt visible light halogen source, 1×30 and 2×30 seconds
  effect of increased light exposure on FV inactivation by hypericin: did not enhance the ability of hypericin to inactivate FV
[6]; hypericin 1 and 5 μg/ml, 1 hour on ice, i.p. BALB/c mice, spleen size day 11, FIG. 6
  virus-induced splenomegaly after injection of hypericin-treated FLV: significantly reduced the ability of the virus to induce splenomegaly; also recorded: absence or presence of minimal splenomegaly
[7]
  effect on reverse transcriptase enzymatic activity: no effect on reverse transcriptase enzymatic activity; also recorded: does not directly affect enzymatic activity of purified reverse transcriptase enzyme
[8]; hypericin 10 μg/ml
  INHIBITION (Log1 0 Reduction) RT: 0.60 Log1 0 Reduction
[8]; hypericin 25 μg/ml
  INHIBITION (Log1 0 Reduction) RT: 1.72 Log1 0 Reduction
[1]
  protection from live virus challenge (immunogenicity of inactivated virus preparation): greatest degree of protection
[2]
  suppression of virus-induced splenomegaly (virus inactivation): effectively suppressed virus-induced splenomegaly
[9]
  extraction of viral RNA by guanidinium hydrochloride: dramatic inhibition of the ability of guanidinium hydrochloride to extract RNA; also recorded: yields of extractable RNA were markedly reduced
[10]; above pH 11.5 (salt, two cations)
  solubility in organic solvents: substantially insoluble in organic solvents
[10]; below pH 11.5 (ion pair, one cation)
  solubility in organic solvents: soluble in organic solvents
[11]; Human immunodeficiency virus 1, CEM174, Expt 1, read-out: INHIBITION (Log1 0 Reduction) INFECTIVITY
  log reduction at 10 µg/mL: 4
[11]; Human immunodeficiency virus 1, CEM174, Expt 1, hypericin 25 μg/ml, read-out: INHIBITION (Log1 0 Reduction) INFECTIVITY
  log reduction at 25 µg/mL: 4.75
[11]; Human immunodeficiency virus 1, CEM174, Expt 2, hypericin 1 μg/ml, virus incubated overnight at 4° C., read-out: INHIBITION (Log1 0 Reduction) INFECTIVITY
  log reduction at 1 µg/mL: 0
[11]; Human immunodeficiency virus 1, CEM174, Expt 2, hypericin 2 μg/ml, virus incubated overnight at 4° C., read-out: INHIBITION (Log1 0 Reduction) INFECTIVITY
  log reduction at 2 µg/mL: 3.75
[11]; Human immunodeficiency virus 1, CEM174, Expt 2, hypericin 5 μg/ml, virus incubated overnight at 4° C., read-out: INHIBITION (Log1 0 Reduction) INFECTIVITY
  log reduction at 5 µg/mL: 4.25
[11]; Human immunodeficiency virus 1, CEM174, Expt 2, virus incubated overnight at 4° C., read-out: INHIBITION (Log1 0 Reduction) INFECTIVITY
  log reduction at 10 µg/mL: 4.75
[11]; after treatment with hypericin (summary of Table 3)
  HIV infectivity titers diminished: 3-4 logs
